What was measured:
amyloid-β (1-42) peptide = assay: amyloid-β protein profile by immunoprecipitation and mass spectrometry (IP-MS), protocol of Wang et al.; assay type: cell-based; details: in vitro
Method: (§1) Compounds of the present invention were assayed to determine their effect on the total ration of amyloid-β (1-42) peptide in vitro using an assay protocol substantially similar to that described by Wang et al., J. Biol. Chem. 1996, 50:31894-31902, The Profile of Soluble Amyloid β Protein in Cultured Cell Media, the entirety of which is hereby incorporated herein by reference. This assay quantifies amyloid-β protein using immunoprecipitation and mass spectrometry (IP-MS).

[1] = test system: 7W cells (APPwt) and 7PA2 cells (APPV717F); assay: method of Wang et al. in 7W cells (APPwt) and 7PA2 cells (APPV717F); assay type: cell-based
Method: as §1
Compound 6 was also assayed according to the method described in Wang et al., in 7W cells (APPwt) and 7PA2 cells (APPV717F). The APP717 mutations increase the relative amount of amyloid-β (1-42) peptide. In this assay, it was shown that compound 6 reduces amyloid-β (1-42) peptide while increasing amyloid-β (1-39) peptide.

[2] = stability experiments in solution; assay type: physicochemical
Method: However, it was stable in slightly acidic solution. Therefore, 2609-165-7 was re-processed on the Luna C8 column using 70% MeOH/30% water containing 0.05% AcOH as eluent to give 3.4 mg of compound 6 (2609-172-11).

Compound: CC(=O)O[C@@H]([C@H]1C[C@@H](C)C2=C(O1)[C@H](O)[C@@]1(C)[C@@H]3CC[C@H]4C(C)(C)[C@@H](O[C@@H]5OC[C@@H](O)[C@H](O)[C@H]5O)CC[C@@]45C[C@@]35CC[C@]21C)C(C)(C)O [Compound 6, 24-O-Acetylhydroshengmanol 3-β-D-xylopyranoside (delta-16,17)-enol ether]
- effect on amyloid-β (1-37) peptide (amyloid-β (1-42) peptide): increasing
- effect on amyloid-β (1-39) peptide (amyloid-β (1-42) peptide): increasing
- effect on amyloid-β (1-42) peptide (amyloid-β (1-42) peptide): reduced
- effect on amyloid-β (1-39) peptide [1]: increasing
- effect on amyloid-β (1-42) peptide [1]: reduces
- stability in solution ([2]; MeOH solution which is slightly basic): deacetylation occurred
- stability in solution ([2]; slightly acidic solution): stable

Source: US8263755B2, “Synthesis of compounds useful as modulators of amyloid-beta production” (Satori Pharmaceuticals, Inc., priority 2006, dated 2012)
